In patent US20260274829A1, “NEW E3 UBIQUITIN LIGASE LIGAND, PROTEIN DEGRADATION AGENT AND USE THEREOF” (GLUETACS THERAPEUTICS (SHANGHAI) CO., LTD., priority 2023, published 2026) one finds IC50 data, which are given here for 18 compounds.

pIC50: −log10 of the molar value.

In this experiment the target is T1, human Cereblon WT GST-tagged protein (Homo sapiens, UniProt Q96SW2).
T1 construct: purchased CISBIO 64BDCRBNPEH
T1 sequence (Q96SW2 whole entry): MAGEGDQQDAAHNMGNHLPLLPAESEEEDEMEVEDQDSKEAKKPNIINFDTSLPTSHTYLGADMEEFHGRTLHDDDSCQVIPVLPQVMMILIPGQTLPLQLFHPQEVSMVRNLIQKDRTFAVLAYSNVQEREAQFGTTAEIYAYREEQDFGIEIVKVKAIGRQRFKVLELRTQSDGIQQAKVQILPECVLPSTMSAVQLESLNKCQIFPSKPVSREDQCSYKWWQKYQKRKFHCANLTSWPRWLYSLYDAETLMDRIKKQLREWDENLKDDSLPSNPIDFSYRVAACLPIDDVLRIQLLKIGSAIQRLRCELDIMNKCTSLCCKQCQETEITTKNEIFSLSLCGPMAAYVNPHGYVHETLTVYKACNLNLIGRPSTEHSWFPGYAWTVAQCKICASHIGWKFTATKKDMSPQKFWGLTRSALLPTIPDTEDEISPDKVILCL
As to the kind of experiment: CRBN binding, HTRF CEREBLON BINDING kit. The settings on record: CRBN binding, HTRF CEREBLON BINDING kit. In outline: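 Binding inhibition was calculated from the 665/620 nm emission ratios, with blank wells and solvent wells as references. Test compounds competed for GST-tagged human Cereblon WT against a Thalidomide-Re reagent paired with GST Eu antibody. Plates were sealed and held at room temperature for 3 hours before the HTRF read.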
(Time-resolved FRET reads energy transfer from a long-lived donor to a nearby acceptor.)
For the compound `O=C1CCN(c2ccc(CN3C[C@H]4C[C@@H]3CN4c3ccc(-c4cc(F)c5c(c4)C(=O)N(C(C(=O)Nc4nccs4)c4ncn6c4CCC6)C5)cc3)cc2)C(=O)N1` (stereo partly drawn) [GT-06177, 2-(6,7-dihydro-5H-pyrrolo[1,2-c]imidazol-1-yl)-2-(6-(4-((1R,4R)-5-(4-(2,4-dioxotetrahydropyrimidin-1(2H)-yl)benzyl)-2,5-diazabicyclo[2.2.1]heptan-2-yl)phenyl)-4-fluoro-1-oxoisoindolin-2-yl)-N-(thiazol-2-yl)acetamide], the pIC50 was more than 6.30.

Consider `O=C1CCN(c2cccc(CN3C[C@H]4C[C@@H]3CN4c3ccc(-c4cc(F)c5c(c4)C(=O)N(C(C(=O)Nc4nccs4)c4ncn6c4CCC6)C5)cc3)c2)C(=O)N1` (stereo partly drawn) [GT-06178, 2-(6,7-dihydro-5H-pyrrolo[1,2-c]imidazol-1-yl)-2-(6-(4-((1R,4R)-5-(3-(2,4-dioxotetrahydropyrimidin-1(2H)-yl)benzyl)-2,5-diazabicyclo[2.2.1]heptan-2-yl)phenyl)-4-fluoro-1-oxoisoindolin-2-yl)-N-(thiazol-2-yl)acetamide], for which the pIC50 is more than 6.30.

In turn, `O=C1CCC(Nc2cccc(CN3C[C@H]4C[C@@H]3CN4c3ccc(-c4cc(F)c5c(c4)C(=O)N(C(C(=O)Nc4nccs4)c4ncn6c4CCC6)C5)cc3)c2)C(=O)N1` (stereo partly drawn) [GT-06179, 2-(6,7-dihydro-5H-pyrrolo[1,2-c]imidazol-1-yl)-2-(6-(4-((1R,4R)-5-(3-((2,6-dioxopiperidin-3-yl)amino)benzyl)-2,5-diazabicyclo[2.2.1]heptan-2-yl)phenyl)-4-fluoro-1-oxoisoindolin-2-yl)-N-(thiazol-2-yl)acetamide] showed a pIC50 of 6.00 to 6.30.

In turn, `O=C1CCN(c2ccc(CN3C[C@H]4C[C@@H]3CN4c3ccc(-c4cc(F)c5c(c4)C(=O)N(C(C(=O)Nc4nccs4)c4ncn6c4CCC6)C5)cc3)nc2)C(=O)N1` (stereo partly drawn) [GT-06190, 2-(6,7-dihydro-5H-pyrrolo[1,2-c]imidazol-1-yl)-2-(6-(4-((1R,4R)-5-((5-(2,4-dioxotetrahydropyrimidin-1(2H)-yl)pyridin-2-yl)methyl)-2,5-diazabicyclo[2.2.1]heptan-2-yl)phenyl)-4-fluoro-1-oxoisoindolin-2-yl)-N-(thiazol-2-yl)acetamide] showed a pIC50 of 6.00 to 6.30.

Compound `O=C1CCN(c2ccc(CN3CCN(c4ccc(-c5cc(F)c6c(c5)C(=O)N(C(C(=O)Nc5nccs5)c5ncn7c5CCC7)C6)cc4)CC3)nc2)C(=O)N1` (stereo not drawn) [GT-06229, 2-(6,7-dihydro-5H-pyrrolo[1,2-c]imidazol-1-yl)-2-(6-(4-(4-((5-(2,4-dioxotetrahydropyrimidin-1(2H)-yl)pyridin-2-yl)methyl)piperazin-1-yl)phenyl)-4-fluoro-1-oxoisoindolin-2-yl)-N-(thiazol-2-yl)acetamide] had a pIC50 of 6.00 to 6.30.

In the case of `O=C1CCC(c2ccc(CN3CCN(C4CCN(c5ccc(-c6cc(F)c7c(c6)C(=O)N(C(C(=O)Nc6nccs6)c6ncn8c6CCC8)C7)cc5)CC4)CC3)cc2)C(=O)N1` (stereo not drawn) [GT-06243, 2-(6,7-dihydro-5H-pyrrolo[1,2-c]imidazol-1-yl)-2-(6-(4-(4-(4-(4-(2,6-dioxopiperidin-3-yl)benzyl)piperazin-1-yl)piperidin-1-yl)phenyl)-4-fluoro-1-oxoisoindolin-2-yl)-N-(thiazol-2-yl)acetamide], the pIC50 is more than 6.30.

Compound `O=C1CCN(c2ccc(CN3CCN(C4CCN(c5ccc(-c6cc(F)c7c(c6)C(=O)N(C(C(=O)Nc6nccs6)c6ncn8c6CCC8)C7)cc5)CC4)CC3)cc2)C(=O)N1` (stereo not drawn) [GT-06244, 2-(6,7-dihydro-5H-pyrrolo[1,2-c]imidazol-1-yl)-2-(6-(4-(4-(4-(4-(2,4-dioxotetrahydropyrimidin-1(2H)-yl)benzyl)piperazin-1-yl)piperidin-1-yl)phenyl)-4-fluoro-1-oxoisoindolin-2-yl)-N-(thiazol-2-yl)acetamide] gave a pIC50 of 6.00 to 6.30.

In turn, `O=C1CCN(c2cccc(CN3CCN(C4CCN(c5ccc(-c6cc(F)c7c(c6)C(=O)N(C(C(=O)Nc6nccs6)c6ncn8c6CCC8)C7)cc5)CC4)CC3)c2)C(=O)N1` (stereo not drawn) [GT-06245, 2-(6,7-dihydro-5H-pyrrolo[1,2-c]imidazol-1-yl)-2-(6-(4-(4-(4-(3-(2,4-dioxotetrahydropyrimidin-1(2H)-yl)benzyl)piperazin-1-yl)piperidin-1-yl)phenyl)-4-fluoro-1-oxoisoindolin-2-yl)-N-(thiazol-2-yl)acetamide] had a pIC50 of more than 6.30.

The compound `O=C1CCN(c2ccc(CN3CCN(C4CCN(c5ccc(-c6cc(F)c7c(c6)C(=O)N(C(C(=O)Nc6nccs6)c6ncn8c6CCC8)C7)cc5)CC4)CC3)nc2)C(=O)N1` (stereo not drawn) [GT-06246, 2-(6,7-dihydro-5H-pyrrolo[1,2-c]imidazol-1-yl)-2-(6-(4-(4-(4-((5-(2,4-dioxotetrahydropyrimidin-1(2H)-yl)pyridin-2-yl)methyl)piperazin-1-yl)piperidin-1-yl)phenyl)-4-fluoro-1-oxoisoindolin-2-yl)-N-(thiazol-2-yl)acetamide] had a negative-log IC50 (pIC50) of more than 6.30.

The compound `O=C1CCC(Nc2cccc(CN3CCN(C4CCN(c5ccc(-c6cc(F)c7c(c6)C(=O)N(C(C(=O)Nc6nccs6)c6ncn8c6CCC8)C7)cc5)CC4)CC3)c2)C(=O)N1` (stereo not drawn) [GT-06247, 2-(6,7-dihydro-5H-pyrrolo[1,2-c]imidazol-1-yl)-2-(6-(4-(4-(4-(3-((2,6-dioxopiperidin-3-yl)amino)benzyl)piperazin-1-yl)piperidin-1-yl)phenyl)-4-fluoro-1-oxoisoindolin-2-yl)-N-(thiazol-2-yl)acetamide] gave a pIC50 of 6.00 to 6.30.

For `O=C1CCC(c2ccc(CN3C4CCC3CN(c3ccc(-c5cc(F)c6c(c5)C(=O)N(C(C(=O)Nc5nccs5)c5ncn7c5CCC7)C6)cc3)C4)cc2)C(=O)N1` (stereo not drawn) [GT-06252, 2-(6,7-dihydro-5H-pyrrolo[1,2-c]imidazol-1-yl)-2-(6-(4-(8-(4-(2,6-dioxopiperidin-3-yl)benzyl)-3,8-diazabicyclo[3.2.1]octan-3-yl)phenyl)-4-fluoro-1-oxoisoindolin-2-yl)-N-(thiazol-2-yl)acetamide], the pIC50 is more than 6.30.

In turn, `O=C1CCN(c2ccc(CN3C4CCC3CN(c3ccc(-c5cc(F)c6c(c5)C(=O)N(C(C(=O)Nc5nccs5)c5ncn7c5CCC7)C6)cc3)C4)cc2)C(=O)N1` (stereo not drawn) [GT-06253, 2-(6,7-dihydro-5H-pyrrolo[1,2-c]imidazol-1-yl)-2-(6-(4-(8-(4-(2,4-dioxotetrahydropyrimidin-1(2H)-yl)benzyl)-3,8-diazabicyclo[3.2.1]octan-3-yl)phenyl)-4-fluoro-1-oxoisoindolin-2-yl)-N-(thiazol-2-yl)acetamide] gave a pIC50 of 6.00 to 6.30.

Take `O=C1CCN(c2cccc(CN3C4CCC3CN(c3ccc(-c5cc(F)c6c(c5)C(=O)N(C(C(=O)Nc5nccs5)c5ncn7c5CCC7)C6)cc3)C4)c2)C(=O)N1` (stereo not drawn) [GT-06254, 2-(6,7-dihydro-5H-pyrrolo[1,2-c]imidazol-1-yl)-2-(6-(4-(8-(3-(2,4-dioxotetrahydropyrimidin-1(2H)-yl)benzyl)-3,8-diazabicyclo[3.2.1]octan-3-yl)phenyl)-4-fluoro-1-oxoisoindolin-2-yl)-N-(thiazol-2-yl)acetamide]: the pIC50 was more than 6.30.

The compound `O=C1CCN(c2ccc(CN3C4CCC3CN(c3ccc(-c5cc(F)c6c(c5)C(=O)N(C(C(=O)Nc5nccs5)c5ncn7c5CCC7)C6)cc3)C4)nc2)C(=O)N1` (stereo not drawn) [GT-06255, 2-(6,7-dihydro-5H-pyrrolo[1,2-c]imidazol-1-yl)-2-(6-(4-(8-((5-(2,4-dioxotetrahydropyrimidin-1(2H)-yl)pyridin-2-yl)methyl)-3,8-diazabicyclo[3.2.1]octan-3-yl)phenyl)-4-fluoro-1-oxoisoindolin-2-yl)-N-(thiazol-2-yl)acetamide] had a pIC50 of more than 6.30.

As for `O=C1CCC(c2ccc(CN3CCN(C4CCN(c5ccc(-c6cc(F)c7c(c6)C(=O)N(C(C(=O)Nc6nccs6)c6ncn8c6CCC8)C7)cc5)CC4(F)F)CC3)cc2)C(=O)N1` (stereo not drawn) [GT-06317, 2-(6,7-dihydro-5H-pyrrolo[1,2-c]imidazol-1-yl)-2-(6-(4-(4-(4-(4-(2,6-dioxopiperidin-3-yl)benzyl)piperazin-1-yl)-3,3-difluoropiperidin-1-yl)phenyl)-4-fluoro-1-oxoisoindolin-2-yl)-N-(thiazol-2-yl)acetamide], the pIC50 was 5.72 to 6.00.

On to `O=C1CCN(c2ccc(CN3CCN(C4CCN(c5ccc(-c6cc(F)c7c(c6)C(=O)N(C(C(=O)Nc6nccs6)c6ncn8c6CCC8)C7)cc5)CC4(F)F)CC3)cc2)C(=O)N1` (stereo not drawn) [GT-06318, 2-(6,7-dihydro-5H-pyrrolo[1,2-c]imidazol-1-yl)-2-(6-(4-(4-(4-(4-(2,4-dioxotetrahydropyrimidin-1(2H)-yl)benzyl)piperazin-1-yl)-3,3-difluoropiperidin-1-yl)phenyl)-4-fluoro-1-oxoisoindolin-2-yl)-N-(thiazol-2-yl)acetamide], for which the pIC50 is 5.72 to 6.00.

`O=C1CCN(c2ccc(CN3CCN(C4CCN(c5ccc(-c6cc(F)c7c(c6)C(=O)N(C(C(=O)Nc6nccs6)c6ncn8c6CCC8)C7)cc5)CC4(F)F)CC3)nc2)C(=O)N1` (stereo not drawn) [GT-06319, 2-(6,7-dihydro-5H-pyrrolo[1,2-c]imidazol-1-yl)-2-(6-(4-(4-(4-((5-(2,4-dioxotetrahydropyrimidin-1(2H)-yl)pyridin-2-yl)methyl)piperazin-1-yl)-3,3-difluoropiperidin-1-yl)phenyl)-4-fluoro-1-oxoisoindolin-2-yl)-N-(thiazol-2-yl)acetamide]: the pIC50 is more than 6.30.

Consider `O=C1CCC(c2ccc(CN3CCC(N4CCN(c5ccc(-c6cc(F)c7c(c6)C(=O)N(C(C(=O)Nc6nccs6)c6ncn8c6CCC8)C7)cc5)CC4)CC3)cc2)C(=O)N1` (stereo not drawn) [GT-06326, 2-(6,7-dihydro-5H-pyrrolo[1,2-c]imidazol-1-yl)-2-(6-(4-(4-(1-(4-(2,6-dioxopiperidin-3-yl)benzyl)piperidin-4-yl)piperazin-1-yl)phenyl)-4-fluoro-1-oxoisoindolin-2-yl)-N-(thiazol-2-yl)acetamide], for which the pIC50 is 6.00 to 6.30.

A word on the pIC50: it is −log10 of the IC50, conventionally taken in molar units. The low end stands for a high IC50, the high end for a low IC50.
